From ChEMBL document CHEMBL4382194, “New Modalities, Technologies, and Partnerships in Probe and Lead Generation: Enabling a Mode-of-Action Centric Paradigm” (J Med Chem, 2018)
Numbered stars: 1 amine (or outer) side, 2 acyl side, 3 side chain; on linkers, the order of the positions; unused ones are H or OH. Bridge positions count the residues as written; N and C are the ends. Peptide text beside a SMILES is read from it. TBMB = c1c(C[*:1])cc(C[*:3])cc1C[*:2]

Experiments:
Homo sapiens [1] = organism: Homo sapiens; assay: Selectivity ratio of Ki for human MC1R expressed in HEK cell membranes to Ki for human MC4R expressed in HEK cell membranes; type: cell-based
Homo sapiens [2] = organism: Homo sapiens; assay: Selectivity ratio of Ki for human MC5R expressed in HEK cell membranes to Ki for human MC4R expressed in HEK cell membranes; type: cell-based
Homo sapiens [3] = organism: Homo sapiens; assay: Selectivity ratio of Ki for human MC2R expressed in HEK cell membranes to Ki for human MC4R expressed in HEK cell membranes; type: cell-based
[4] = Modulation of full length SMN2 mRNA (unknown origin) splicing by luciferase reporter gene assay; set-up: species or system Homo sapiens
80S Ribosome = assay: Inhibition of human 80S ribosome-mediated PCSK9 translation expressed in CHO-K1 cells assessed as reduction in PCSK9 secretion; type: cell-based
[5] = target: T1, Epidermal growth factor receptor substrate 15 (Homo sapiens, UniProt P42566); assay: Inhibition of stonin-2 binding to Eps15 (unknown origin)
T1 sequence (P42566 whole entry): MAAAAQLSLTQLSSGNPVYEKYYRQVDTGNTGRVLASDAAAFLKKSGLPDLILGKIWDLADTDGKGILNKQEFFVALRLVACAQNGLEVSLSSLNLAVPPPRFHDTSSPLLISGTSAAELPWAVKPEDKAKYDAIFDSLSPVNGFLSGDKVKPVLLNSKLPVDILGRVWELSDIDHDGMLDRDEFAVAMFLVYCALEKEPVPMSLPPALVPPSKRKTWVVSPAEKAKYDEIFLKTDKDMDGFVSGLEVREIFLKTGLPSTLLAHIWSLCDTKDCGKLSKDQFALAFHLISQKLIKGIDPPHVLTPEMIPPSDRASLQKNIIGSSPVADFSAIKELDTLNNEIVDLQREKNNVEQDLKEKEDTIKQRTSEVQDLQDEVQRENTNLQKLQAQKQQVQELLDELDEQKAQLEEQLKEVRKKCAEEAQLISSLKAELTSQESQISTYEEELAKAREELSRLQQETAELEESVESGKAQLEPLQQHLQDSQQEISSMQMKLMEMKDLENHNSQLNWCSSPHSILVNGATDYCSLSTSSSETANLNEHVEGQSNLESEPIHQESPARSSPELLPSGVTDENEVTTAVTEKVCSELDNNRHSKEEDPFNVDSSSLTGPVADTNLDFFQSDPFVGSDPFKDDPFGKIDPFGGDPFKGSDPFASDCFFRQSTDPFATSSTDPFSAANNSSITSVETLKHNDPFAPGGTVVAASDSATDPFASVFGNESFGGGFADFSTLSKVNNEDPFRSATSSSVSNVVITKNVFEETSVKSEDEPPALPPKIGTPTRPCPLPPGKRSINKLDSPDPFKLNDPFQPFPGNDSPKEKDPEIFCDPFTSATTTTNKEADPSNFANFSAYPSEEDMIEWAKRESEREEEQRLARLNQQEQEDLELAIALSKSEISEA

Plasma kallikrein = Plasma kallikrein (Homo sapiens, UniProt P03952); assay: Binding affinity to human plasma kallikrein
Chain of Plasma kallikrein (P03952 20-390 limits assumed): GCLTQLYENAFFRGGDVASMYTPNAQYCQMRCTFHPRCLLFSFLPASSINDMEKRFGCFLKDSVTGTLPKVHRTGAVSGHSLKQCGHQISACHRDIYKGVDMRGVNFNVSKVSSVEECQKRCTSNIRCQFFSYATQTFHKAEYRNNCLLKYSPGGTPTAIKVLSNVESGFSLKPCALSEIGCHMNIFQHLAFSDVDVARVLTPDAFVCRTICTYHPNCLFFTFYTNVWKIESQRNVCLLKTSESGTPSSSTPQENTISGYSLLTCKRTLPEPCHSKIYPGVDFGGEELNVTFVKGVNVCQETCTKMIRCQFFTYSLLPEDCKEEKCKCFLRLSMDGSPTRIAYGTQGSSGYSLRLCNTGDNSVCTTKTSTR
Chain of Plasma kallikrein (P03952 391-638 limits assumed): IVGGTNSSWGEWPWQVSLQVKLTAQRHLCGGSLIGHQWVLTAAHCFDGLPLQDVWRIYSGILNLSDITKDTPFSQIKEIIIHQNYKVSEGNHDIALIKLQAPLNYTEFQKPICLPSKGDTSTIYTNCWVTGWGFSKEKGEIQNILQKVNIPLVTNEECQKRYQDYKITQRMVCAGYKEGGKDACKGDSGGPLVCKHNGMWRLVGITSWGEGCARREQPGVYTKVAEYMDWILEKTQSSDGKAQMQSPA

Structure (SMILES): CC(C)C[C@@H]1NC(=O)CNC(=O)[C@H](CC(N)=O)NC(=O)[C@H](CCCNC(=N)N)NC(=O)[C@H]([C@@H](C)O)NC(=O)[C@@H]2CSSC[C@@H]3NC(=O)[C@H]([C@@H](C)O)NC(=O)CNC(=O)CNC(=O)[C@H](C(C)C)NC(=O)[C@@H]4CSSC[C@H](NC(=O)[C@H]([C@@H](C)O)NC(=O)[C@H](CSSC[C@H](NC(=O)[C@H](C(C)C)NC(=O)[C@@H]5CCCN5C1=O)C(=O)NCC(=O)N[C@@H](CCC(=O)O)C(=O)N[C@@H]([C@@H](C)O)C(=O)N4)NC(=O)CNC(=O)[C@@H]1CCCN1C(=O)[C@H]([C@@H](C)O)NC(=O)[C@H](CC(N)=O)NC3=O)C(=O)N[C@@H](CO)C(=O)N[C@@H](Cc1c[nH]c3ccccc13)C(=O)N1CCC[C@H]1C(=O)N[C@@H](C(C)C)C(=O)N2
- Ratio Ki (Homo sapiens [1]): 100 to 300
- Ratio Ki (Homo sapiens [2]): 100 to 300
- Ratio Ki (Homo sapiens [3]): 100 to 300

Structure (SMILES): CN(c1ccc(-c2ccc(-c3cn[nH]c3)cc2O)nn1)C1CC(C)(C)NC(C)(C)C1
- EC50 [4]: 5 nM

Structure (SMILES): COc1ccc(CCC(=O)N(c2nccc3c2CC=CC3)[C@@H]2CCCNC2)cc1
- EC50 (80S Ribosome): 2200 nM

Structure (SMILES): C[C@@H]1NC(=O)[C@H](CCCNC(=N)N)NC(=O)[C@H](Cc2c[nH]c3ccccc23)NC(=O)[C@@H]2CCCN2C(=O)[C@H](N)CSCc2cccc(c2)CSC[C@@H](C(=O)O)NC(=O)[C@H](Cc2ccccc2)NC(=O)[C@@H]2CCCN2C(=O)[C@H](CC(N)=O)NC(=O)[C@H]([C@@H](C)O)NC1=O
- Kd [5]: 370 nM

Structure (SMILES): CC(C)C[C@@H]1NC(=O)[C@H](C)NC(=O)[C@H](CCC(=O)O)NC(=O)[C@H](CC(=O)O)NC(=O)[C@H](C)NC(=O)[C@@H]2CCCN2C(=O)[C@@H]2CSCc3cc(cc(c3)CSC[C@@H](C(=O)NCC(=O)O)NC1=O)CSC[C@H](NC(=O)[C@H](C)N)C(=O)N[C@@H](CO)C(=O)N[C@@H](CC(=O)O)C(=O)N[C@@H](CCCNC(=N)N)C(=O)N[C@@H](Cc1ccccc1)C(=O)N[C@@H](CCCNC(=N)N)C(=O)N[C@@H](CC(N)=O)C(=O)N2 (H-ACSDRFRNCPADEALCG-OH; linker 2-9-16 via TBMB)
- Kd (Plasma kallikrein): 20 nM
